This experiment has as its system SARS-CoV-2 (strain WK-521) and various variants thereof. In kind it is cell-based.

Consider `Nc1ncnc2c1c(CO)cn2[C@@H]1O[C@H](CO)[C@@H](O)[C@H]1O` [HUP1108, 5-hydroxymethyltubercidin], for which the “virus amount released from infected cells / antiviral activity against variant strains” value is recorded as “has antiviral activity against various variant strains of SARS-CoV-2”.

The values above are taken from patent US20240131046A1, “ANTI-VIRAL AGENT” (NATIONAL UNIVERSITY CORPORATION HOKKAIDO UNIVERSITY, priority 2021, published 2024).
